This note sets out measurements from US20080188837A1, “Local Delivery of Drugs or Substances Using Electronic Permeability Increase” (priority 2004, published 2008).

What all share (assay type): in vitro ADME, Wistar rat
Data set [1] has as its system jejunal tissue samples (upper jejunum). In words: In vitro permeation of octreotide via jejunal tissue in diffusion chamber 500 under LITV pulses (FIGS. 27-36). Particulars: for octreotide permeation vs control group: FIG. 29; for permeation efficiency, effect of electrode material: FIG. 34. How it is done: (§1) The samples were analyzed for their content of octreotide by HPLC-UV 205 nm spectroscopy (Hewlett-Packard 1100). […] A 100×3 mm C18 column was used.

Data set [2] concerns upper jejunum tissue segments. The data set can be described thus: In vitro permeation of octreotide through rat upper jejunum in a diffusion chamber, with and without LITV pulses (FIG. 24). Particulars: 12 Hz monophasic pulses, 1 millisecond, 3 mA, vs control chamber without electrical stimulation, 1 mg/ml donor, 90-minute period. An excerpt:
The distance between electrode centers was 10 mm.

The subject of data set [3] is proximal ileum tissue samples. The data set can be described thus: In vitro permeation of octreotide via proximal ileum tissue in diffusion chamber 500 under LITV pulses (FIG. 36). Particulars: 18 Hz, 3 mA, 1 millisecond, at 7 minutes, vs non-stimulated control. The procedure: as §1
Data set [4] has as its system distal ileum tissue samples. In words: In vitro permeation of octreotide via distal ileum tissue in diffusion chamber 500 under LITV pulses (FIG. 36). Particulars: 18 Hz, 3 mA, 1 millisecond, at 7 minutes, vs non-stimulated control. How it is done:
as §1

Molecules are shown by their SMILES.

In the case of `C[C@@H](O)[C@@H]1NC(=O)[C@H](CCCCN)NC(=O)[C@@H](Cc2c[nH]c3ccccc23)NC(=O)[C@H](Cc2ccccc2)NC(=O)[C@@H](NC(=O)[C@H](N)Cc2ccccc2)CSSC[C@@H](C(=O)N[C@H](CO)[C@@H](C)O)NC1=O` [octreotide, octreotide acetate], in data set [1] (1 pulse per cycle among 1, 2, 3 pulses per cycle, 18 Hz, 3 mA, 1 millisecond, FIG. 31), the “permeation efficiency, effect of pulse cycle” value is listed as “greatest permeation efficiency”. Also, the “transport enhancement ratio (ER), effect of pulse frequency” value in data set [1] (18 Hz among 5, 12, 18, 24, 30, 60 Hz, 1 millisecond, 3 mA, at 30 minutes, FIG. 28) is listed as “greatest enhancement ratio”. In addition, in data set [1] (continuous application of pulses vs cessation after 10 minutes (n=1), 18 Hz, 3 mA, 1 millisecond, normalized to control group of FIG. 27, FIG. 35), the “permeation efficiency, effect of cessation of pulse application” value is “substantially greater permeation efficiency”. The “magnitude of permeation efficiency, effect of electrode distance from jejunal tissue” value in data set [1] (electrode distance 0.5 mm (n=2) vs 3 mm (n=6), 18 Hz, 3 mA, 1 millisecond, at 15 minutes, FIG. 32) is “greater at 0.5 mm than at 3 mm”. The “permeation efficiency, effect of pulse application by intestinal region” value was “greatest effect of pulse application” in data set [1] (jejunal tissue, 18 Hz, 3 mA, 1 millisecond, at 7 minutes, vs non-stimulated control, FIG. 36); “increased permeation efficiency” in data set [3]; “positive but less pronounced effect” in data set [4]. In data set [1] (number of pulses per cycle increased from 1 to 2 to 3 (5-millisecond intervals), 18 Hz, 3 mA, 1 millisecond, FIG. 31), the “permeation efficiency, trend with number of pulses per cycle” value is listed as “the permeation efficiency decreased”. Besides, the “transport enhancement ratio (ER), effect of pulse duration” value in data set [1] (pulse duration 1 millisecond among 0.2, 0.5, 1, 3 milliseconds, 18 Hz, 3 mA, at 15 minutes, FIG. 30) is “greatest enhancement ratio”. Moreover, the “octreotide permeation (permeation efficiency)” value in data set [1] (pulses 1 millisecond, 18 Hz, 3 mA (n=6) vs non-stimulated control group (n=3), FIG. 27) is on record as “substantially enhanced octreotide permeation”. Also, the “octreotide permeation vs control group” value is reported as “did not yield a higher octreotide permeation” in data set [1] (pulses at 5 Hz (n=1), 1 millisecond, 3 mA) and “did not yield a higher octreotide permeation” in data set [1] (pulses at 60 Hz (n=1), 1 millisecond, 3 mA). The “permeation efficiency, effect of electrode material” value in data set [1] (silver chloride (AgCl) electrodes (n=2), 18 Hz, 3 mA, 1 millisecond) is “did not increase permeation efficiency”; in data set [1] (stainless steel (SS316L) electrodes (n=6), 18 Hz, 3 mA, 1 millisecond), “substantially increased permeation efficiency”; in data set [1] (titanium nitride (TN) electrodes (n=3), 18 Hz, 3 mA, 1 millisecond), “did not increase permeation efficiency”. The “permeation efficiency, effect of electrode insulation” value in data set [1] (without divider 528, electrodes not insulated from each other (n=1), 18 Hz, 3 mA, 1 millisecond, FIG. 33) was “did not increase permeation efficiency”. Further, the “octreotide permeation into acceptor cell” value in data set [2] is listed as “substantially greater increase in octreotide permeation”.
